# In patent publication USRE34918E, “Azaazulene compounds which are useful as antiallergic and antiinflammatory agents” (Kaken Pharmaceutical Co., Ltd., priority 1988, dated 1995):
# “And” between values parts separate entries of the source, which are not always exact repeats. Equal entries are not always repeated.
# Tests used:
# [1] = system: carrageenin edema in a foot-pad of rat; assay: Effect on carrageenin edema in a foot-pad of rat; type: in vivo, rat (male Wister); conditions: 50 mg/kg p.o., 4 hours after carrageenin
# Procedure: The test was carried out according to the modified method on a method of Winter et al [Proc. Soc. Exp. Biol Med., 111, 544-547 (1962)]. Five male Wister rats weighing 148 to 162 g which were subjected to fasting for 24 hours were used as one group.
# The test compound was suspended in 0.5% aqueous solution of CMC, and the suspension was administered orally in a amount of 50 mg/kg. After 60 minutes, 0.1 ml of 1% carrageenin solution in physiological saline was injected subcutaneously into the foot-pad of the left hind foot. Four hours after the injection of carrageenin, the volume of the foot-pad was measured by the apparatus for measurement of foot-pad volume in rat (commercially available from Ugobasile).
# Swelling volume was calculated from the difference between a volume of foot-pad before inflaming the foot-pad, i.e. normal volume and that after inflaming it. Effect of a test compound was expressed as inhibition rate against swelling by calculating percentage in comparison with the 0.5% CMC administration group.
# Indomethacin (commercially available from Merck Co.) was used as a positive comparative drug.
# [2] = system: smooth musculus trachealis; assay: Relaxant activity of smooth musculus trachealis in guinea pig; set-up: species or system guinea pig (male Hartley); conditions: Cavia porcellus; tracheal chain strips, 37° C.; read-out: Concentration for 50% relaxation
# Procedure: Male Hartley guinea pigs weighing 350 to 550 g were bleed to death, and immediately the tracheae were extirpated. According to the method of Takagi et al [cf. Chem. Pharm. Bull., 8, 716 (1958)], tracheal chain strips was prepared, and the sample was suspended on Magnus apparatus under addition of load of 0.5 g. The test was carried out at 37° C. of liquid temperature. After position of tonus was examined with histamine (10^-6 g/ml) and isoproterenol (10^-7 g/ml), the test compound dissolved in a mixture of dimethyl sulfoxide and physiological saline was added thereto, and the test compound was investigated with respect to the effect on smooth musculus trachealis. Theophylline was used as a positive comparative drug. The relaxation and the contraction of smooth musculus trachealis were recorded on servocorder (SR 6342: commercially available from Watanabe Instruments Corp.) by connecting Isotonic Transducer (TD-1125: commercially available from Nihon Kohden Kogyo Co., Ltd.) to a balancing box.
structure (smiles),measurement,setting,value
"CC(C)c1cccc2n(Cc3ccc(F)cc3)c(=O)c(-c3nnn[nH]3)c-2c1 [Example 9, 1-(4-Fluorobenzyl)-5-iso-propyl-3-(5-tetrazolyl)-1-azaazulane-2-one]","Swelling volume 4 hours after inflaming, mean ± standard error",[1],0.55 mL and 0.55 ± 0.032 mL
same,Inhibition rate against swelling,[1]; vs 0.5% CMC group,38.9%
same,EC50,[2],8.6 mg/L
